Source: patent US8674070B2, “Cancer-targeting peptides and uses thereof in cancer therapy” (Academia Sinica, priority 2009, dated 2014)

What was measured:
[1] = tested on: BT483 breast cancer xenografts; experiment: Treatment of breast tumor xenografts: tumor volume; assay type: in vivo, SCID mice; details: doxorubicin 3 mg/kg once a week for three weeks, tail vein; n=6, P<0.005
Procedure: SCID mice (4-6 weeks of age) were injected s.c. in the dorsolateral flank with 1×10^7 BT483 cells to induce breast cancer xenografts. The tumor volumes in these mice were determined by the formula: length×[…]×0.52. The mice bearing xenograft tumors at a size of around 50-100 mm^3 were randomly assigned to four groups, each of which was treated as follows via administration through their tail veins.
Group 1: treated with SP90 conjugated doxorubicin-containing liposomes (SP90-LD) at a doxorubicin dosage of 3 mg/kg, once a week for three weeks,
Group 2: treated with doxorubicin-containing liposomes (LD), at a doxorubicin dosage of 3 mg/kg, once a week for three weeks,
Group 3: treated with free doxorubicin (FD), at a doxorubicin dosage of 3 mg/kg, once a week for three weeks, and
Group 4: treated with saline once a week for three weeks (blank control).
Mouse body weights and tumor sizes were measured twice a week. Tumor volumes were calculated following the formula described above.

[2] = Total white blood cell count in treated tumor-bearing mice; assay type: in vivo, SCID mice; details: three days after the last treatment (day 17); doxorubicin 3 mg/kg weekly x3
Procedure: The total white blood cell (WBC) numbers in the treated mice were determined three days after the last treatment (i.e., on day 17) as follows. […] The blood was then mixed with a red blood cell lysis buffer containing 2% acetic acid and 1% of Gentian violet (Sigma-Aldrich, Saint Louis, Mo., USA) and incubated at room temperature. The number of the WBCs was countered using a hemacytometer.

tumor blood vessels = experiment: Tumor blood vessel staining with tomato lectin; assay type: in vivo, SCID mice; details: doxorubicin 3 mg/kg weekly x3; FIG. 3 Panel B
Excerpt: Tumor tissues were removed from the treated mice, fixed with 4% paraformaldehyde and embedded with paraffin. Blood vessels in the tumor tissues were detected by staining with Lycopersicon esculentum (tomato) lectin conjugated to biotin (Vector, CA, USA) and then with streptavidin-conjugated rhodamine (Pierce, Ill., USA).

[3] = Doxorubicin localization in tumor tissues of treated mice; assay type: in vivo, SCID mice; details: 2 mg/kg tail vein
Excerpt: At selected time points, three mice in each group were anaesthetized and sacrificed.

[4] = tested on: cancer cells in breast cancer tissue samples; experiment: Peptide competition assay on cancer tissue samples; assay type: binding, human; details: peptide 100 ng/ml; PC90 10^9 pfu
Procedure: The cancer targeting activity of PC90 was confirmed by a peptide competition assay, in which the cancer tissue samples were incubated with (1) the synthetic peptide (100 ng/ml) SMDPFLFQLLQL (SEQ ID NO:5) (SP90) and PC90 (10^9 pfu) or (2) the control peptide (100 ng/ml) RLLDTNRPLLPY (SEQ ID NO:6; see Lee et al., cancer Res. 64:8002-8008, 2004) and PC90. SP90 and the control peptide were synthesized and purified by reverse-phase high-performance liquid chromatography. The resultant peptides, having a purity of greater than 95%, were conjugated, if necessary, with FITC or biotin at their N-termini.

breast tumor xenografts = experiment: In vivo peptide competition: co-injection with PC90 in mice bearing breast tumor xenografts; details: 100 μg peptide co-injected with PC90
Procedure: SP90 was co-administered to test its ability of blocking PC90 from binding to the tumor tissues. Briefly, 100 μg SP90 or the control peptides described above were co-injected with PC90 to mice bearing breast tumor xenografts. The normal organs and tumor tissues were removed and fixed in Bouin's solution (Sigma, Mo., USA). After fixation, the samples were embedded in paraffin blocks, sliced to sections, and the sections were deparaffinized, rehydrated, and subjected to immunostaining using the mouse anti-M13 mAb described in Example 1 above.

Compound | average tumor volume, fold larger than that of the Group 2 mice [1] | total number of the WBCs [2] | number of tumor vessels / tumor vascular density (lectin staining) (tumor blood vessels) | areas of tumor tissue in which doxorubicin was detected (autofluorescence) [3] | competition against PC90 for binding to the cancer cells in the tissue samples [4] | inhibition of PC90 binding to the tumor tissues (breast tumor xenografts)
COc1cccc2c1C(=O)c1c(O)c3c(c(O)c1C2=O)C[C@@](O)(C(=O)CO)C[C@@H]3O[C@H]1C[C@H](N)[C@H](O)[C@H](C)O1 [FD, doxorubicin] | 8.3 fold | 5.6×10^3 /mm^3 | high tumor vascular density | detected only in limited areas | – | –
RLLDTNRPLLPY [control peptide] | – | – | – | – | not | did not exhibit any inhibitory activity
SMDPFLFQLLQL [SP90] | – | – | – | – | competed against PC90 for binding to the cancer cells | 97%
